According to ChEMBL document CHEMBL4825724, “Synthesis and biological evaluation of platensic alcohol as an adamantane surrogate in antitumor drug lead adaphostin” (Bioorg Med Chem Lett, 2021):
Values after ≈ are worked out from the molar mass of the structure shown. Active and inactive are the calls of the source. No cut-off for these calls is given here.

What was measured:
Staphylococcus aureus = assay: Antibacterial activity against methicillin-resistant Staphylococcus aureus; format: functional
[1] = Half life in human serum incubated up to 24 hrs by HPLC analysis; format: ADME, cell-free
Caco-2 = assay: Cytotoxicity against human Caco-2 cells assessed as cell growth inhibition measured after 72 hrs by CCK8 assay; format: functional, cell-based; conditions: Caco-2, 72 h
Jurkat [2] = assay: Induction of ROS generation in human Jurkat cells at 1 uM measured after 2 hrs by DCFH-DA staining based flourescence assay relative to H2O2; format: functional, cell-based
Jurkat [3] = assay: Antagonistic cytotoxicity against human Jurkat cells assessed as decrease in cell viability at 0.1 to 25 uM measured after 72 hrs in presence of vorinostat; format: functional, cell-based; conditions: dose 0.1-25 µM
[4] = Cytotoxicity against human KPL-4 cells assessed as cell growth inhibition measured after 72 hrs by CCK8 assay; format: functional, cell-based; conditions: KPL4, 72 h
A549 = assay: Cytotoxicity against human A549 cells assessed as cell growth inhibition measured after 72 hrs by CCK8 assay; format: functional, cell-based; conditions: A549, 72 h
Jurkat [5] = assay: Cytotoxicity against human Jurkat cells assessed as cell growth inhibition measured after 72 hrs by CCK8 assay; format: functional, cell-based
Jurkat [6] = assay: Induction of ROS generation in human Jurkat cells assessed as increase in intracellular ROS level measured after 4 hrs in presence of vorinostat; format: functional, cell-based
Jurkat [7] = assay: Induction of ROS generation in human Jurkat cells at 5 uM measured after 4 hrs by DCFH-DA staining based flourescence assay relative to H2O2; format: functional, cell-based

Structure (SMILES) | MIC (Staphylococcus aureus) [µg/mL] | half-life [1] [h] | IC50 (Caco-2) [µM] | Activity (Jurkat [2]) | Activity (Jurkat [3]) | IC50 [4] [µM] | IC50 (A549) [µM] | IC50 (Jurkat [5]) [µM] | Activity (Jurkat [6]) | Activity (Jurkat [7])
C[C@]12C[C@@]34C=CC(=O)[C@@](C)(CCC(=O)Nc5c(O)ccc(C(=O)O)c5O)[C@@H]3[C@H](C[C@@H]1C4)O2 | 0.2 (≈ 0.453 µM) |  |  |  |  |  |  |  |  | 
O=C(OC12CC3CC(CC(C3)C1)C2)c1ccc(NCc2cc(O)ccc2O)cc1 |  | 12 | 8 | Active | inactive | 4.6 | 20.1 | 3.1 |  | 
O=C(O)c1ccc(NCc2cc(O)ccc2O)cc1 |  |  | 49.8 |  |  | > 100 | > 100 | 20.4 |  | 
CC12CC34C=CC(=O)[C@@](C)(CCC(=O)NNC(=O)c5ccc(NCc6cc(O)ccc6O)cc5)C3C(CC1C4)O2 (stereo not given in full) |  |  | 65.2 |  |  | > 100 | > 100 | > 100 |  | 
CC12CC34CC[C@H](O)[C@@](C)(CCCO)C3C(CC1C4)O2 (stereo not given in full) |  | 5 | 37.5 |  |  | 2.7 | 35.9 | 7.3 |  | 
O=C(NNC(=O)C12CC3CC(CC(C3)C1)C2)c1ccc(NCc2cc(O)ccc2O)cc1 |  |  | > 100 |  |  | > 100 | > 100 | 16 |  | 
CC12CC34CC[C@H](OC(=O)c5ccc(NCc6cc(O)ccc6O)cc5)[C@@](C)(CCCOC(=O)c5ccc(NCc6cc(O)ccc6O)cc5)C3C(CC1C4)O2 (stereo not given in full) |  | 12 | 7 | Active | Active | 7.7 | 9.6 | 5 | Active | Active
COC(=O)c1ccc(NCc2cc(O)ccc2O)cc1 |  | 3 | 15.1 |  |  | 15.6 | 23.2 | 13.1 |  | 
C[C@@]1(CCC(=O)Nc2c(O)ccc(C(=O)O)c2O)C(=O)C=CC23CC4CC(CC(C4)C21)C3 (stereo not given in full) | 1.3 (≈ 2.96 µM) |  |  |  |  |  |  |  |  | 
